Results published in US11420922B2, “Hydroxylated tropolone inhibitors of nucleotidyl transferases in herpesvirus and Hepatitis B and uses therefor” (Saint Louis University, priority 2015, dated 2022).
Entries after “also recorded” stand apart in the source; their conditions may differ. Like-named read-outs stand apart in the source and are kept apart here.

Experiments:
HBV = HBV replication assay in HepDES19 cells; format: cell-based; details: Hepatitis B virus
Experimental: HBV replication assay. Inhibition of HBV replication was measured in HepDES19 cells as previously described (Cai, et al., 2014). Cells were seeded into 6-well plates and incubated in DMEM/F12, 10% fetal bovine serum (FBS), 1% penicillin/streptomycin (P/S) with 1 μg/ml tetracycline. Tetracycline was withdrawn after 24 hours. The test compound was applied to duplicate wells 48 hours later in medium containing a final DMSO concentration of 1%, and medium containing the compound was refreshed daily for the following two days. Cells were harvested and non-encapsidated nucleic acids were digested with micrococcal nuclease (New England Biolabs). HBV DNA was purified from capsids using QIAamp Cador Pathogen Mini Kit (Qiagen) with proteinase K incubation overnight at 37° C. TaqMan PCR was performed for 40 cycles at an annealing temperature of 60° C. Primers and probe (IDT Inc.) for the plus-polarity strand were: 5′[…]3′ (SEQ ID NO: 1); 5′[…]3′ (SEQ ID NO: 2); 5′/56-FAM/[…]/ZEN/[…]/3IABkFQ (SEQ ID NO: 3). Primers and probe for the minus-polarity strand were: 5′[…]3′ (SEQ ID NO: 4); 5′[…]3′ (SEQ ID NO: 5); 5′/56-FAM/[…]/ZEN/[…]/3IABkFQ (SEQ ID NO: 6).

[1] = Cytotoxicity reported with the HBV assay (Table 4); format: cell-based; details: human, hepatoma cells; read-out: CC50 (HBV assay table)
Experimental: (§1) Qualitative assessments of cytotoxicity were done visually by inspecting the cells in the primary screening assays. For the quantitative assays, cells were plated in 96-well plates at 1.0×10^4 per well. The next day the compounds were added at 0.78 to 100 μM in a final concentration of 1% (v/v) DMSO, and the cells were incubated for 24 hours under conditions identical to those employed for the viral replication inhibition assays. Mitochondrial toxicity was measured by incubating the cells with 0.25 mg/mL thiazolyl blue tetrazolium bromide (MTT, Sigma Aldrich Chemical Co.), the cultures were incubated for 60 min, metabolites were solubilized in acidic isopropanol, and absorbance was read at 570 nm. CC50 values were calculated by non-linear curve fitting using GraphPad Prism.

HSV-2 [2] = assay: Anti-HSV-2 replication assay in Vero cells, titers by plaque assay; format: cell-based, herpes simplex virus 2; details: for log reduction at 5 µM / log reduction at 50 µM: Human alphaherpesvirus 2, Vero, 24 h; for log reduction at 5 µM: read-out: HSV-2 Log suppression 5 μM; for log reduction at 50 µM: read-out: HSV-2 Log suppression 50 μM
[3] = Quantitative Vero cell toxicity (MTT); format: cell-based; details: African green monkey, Vero cells
Experimental: as §1
Quantitative toxicity measurements were conducted for all compounds that suppressed HSV replication by >2 log10 at 5 μM plus a number of compounds with lesser inhibitory activity for comparison. Toxicity was assessed by […]. Cells were plated in 96-well plates at 1.0×10^4 per well. The next day compound was added in concentrations ranging from 0.78 to 100 μM in a final concentration of 1% (v/v) DMSO. The cells were incubated for 24 h under conditions identical to those employed for the viral replication inhibition assays, and then mitochondrial activity was measured with the MTT assay (Sigma Aldrich) according to the manufacturer's instructions. Percent viability was determined for each compound concentration from the […], and then 50% cytotoxic concentrations (CC50) values were calculated by non-linear curve fitting using GraphPad Prism. Consistent with the subjective assessments of toxicity, all compounds selected for quantitative toxicity assessment had CC50 values≥50 μM under these conditions (Table 1).

HSV-1 [4] = assay: Anti-HSV-1 replication assay in Vero cells, titers by plaque assay; format: cell-based, herpes simplex virus 1; details: for log reduction at 5 µM: read-out: HSV-1 Log suppression 5 μM; for log reduction at 50 µM: read-out: HSV-1 Log suppression 50 μM
Experimental: Vero cells were maintained in Dulbecco's modified Eagle's medium (DMEM) containing 3% newborn calf serum, 3% bovine growth serum, 2 mM L-glutamine and 100 IU/mL penicillin and 0.1 mg/mL streptomycin (P/S). HSV-1 #6 and HSV-2 #1 are de-identified clinical isolates from the Saint Louis University Hospital. Stocks were prepared after a single passage in cell culture and were titered by standard plaque assay (Knipe and Spang, 1982). Wild-type HSV-2 used in FIG. 3 was laboratory strain 333. […] Virus stocks were grown and titered on Vero cells (Morrison and Knipe, 1996).
(§2) Compounds to be screened were diluted in PBS supplemented to contain 2% newborn calf serum and 1% glutamine, and added in 100 μL volume to confluent cell monolayers in 24-well cluster plates. Immediately thereafter HSV-1 and HSV-2, diluted in the supplemented PBS medium, were added to the wells in 50 μl volume such that the final concentration of compound was 50 μM and 5 μM and the multiplicity of infection was 0.1. The plates were incubated at 37° C. for 1 hour and then virus-containing inoculum was removed and the wells were washed once in PBS. Compounds, diluted to 50 μM and 5 μM in DMEM supplemented to contain 2% newborn calf serum and 1% each penicillin/streptomycin, were added at 0.5 mL/well. Plates were incubated at 37° C. an additional 23 hr, and then the plates were visually inspected through a phase contrast microscope for cytopathic effect, and for toxic effect. […] The entire contents of each well were collected by scraping. Samples were frozen at −80° C., and then subsequently thawed, sonicated, and infectious virus titer was determined by standard plaque assay on Vero cell monolayers. Because the compounds were dissolved at 10 mM in 100% DMSO, equivalent dilutions of DMSO were added to additional wells as a control for effects of the diluent. Each experiment was repeated once. EC50 values were determined as above except that serial dilutions of the compound to be tested were prepared starting at 50 μM. The inhibitory values were calculated by non-linear curve-fitting in GraphPad Prism.

HSV-1 [5] = details: 5 μM or less; cited from earlier work
HSV-2 [6] = details: 5 μM or less; cited from earlier work
HSV = assay: Anti-HSV SAR summary, HSV type not separated; format: cell-based, herpes simplex virus; details: grouped by activity at 50, 5 and 0.5 μM
Experimental: as §2
A series of over 20 synthetic αHTs were synthesized and tested to both confirm the initial SAR, and to provide leads for further optimization pursuits (FIG. 5). […] Specifically, biphenyl-containing molecules #118 and 115 inhibit HSV replication by up to 4 log10 at 200 nM. The increased potency over close analogs #111 and 113 confirmed the importance of added lipophilicity.

[7] = Mouse liver microsome assay; format: in vitro ADME; details: 1 μM in mouse liver microsomes; for half-life at 1 μM: read-out: t ½; for ER: extraction ratio
Experimental: Microsomal incubations are run at a final P450 concentration of 0.25 μM. The microsomal mixture is composed of 0.1M potassium phosphate containing 3.3 mM MgCl and 1 μM compound (final concentration). The mixture is prewarmed for 5 min at 37° C. To initiate the reaction a 12 mM stock of NAPDH (1.2 mM, final concentration) is added to the warmed microsomal mixture and aliquots are removed at 0, 5, 10, 20 and 30 min. Samples are quenched with ice cold acetonitrile containing internal standard and either 1.8 mM EDTA or EGTA (final concentration). Samples are vortexed and spun down at 3200 rpm for 5 min. The supernant is transferred to 96-deep well plates and run on LC/MS/MS.

[8] = HepDES19 cells, read-out: EC50 (HBV assay)
[9] = Human alphaherpesvirus 1, Vero, 24 h

Compound	EC50 (HBV; [8])	CC50 at 24 h [1]	log reduction at 5 µM (HSV-2 [2])	log reduction at 50 µM (HSV-2 [2])	CC50 at 24 h [3]	log reduction at 5 µM (HSV-1 [4]; [9])	log reduction at 50 µM (HSV-1 [4]; [9])	suppression of HSV-1 replication in cell culture, in words (HSV-1 [5])	suppression of HSV-2 replication in cell culture, in words (HSV-2 [6])	anti-HSV SAR group, in words (HSV)	Non-P450 turn-over [7]	half-life at 1 μM [7]	ER [7]	EC50 (HBV; HepDES19, read-out: EC50 (HBV assay))	HSV-2 inhibition, fold (HSV-2 [2]; 5 μM)	HSV-1 inhibition, fold (HSV-1 [4]; 5 μM)	EC50 (HSV-1 [4]; Human alphaherpesvirus 1, Vero, 24 h, read-out: HSV-1 EC50)
Cc1cc(O)c(=O)c(O)cc1-c1cccc(Br)c1 [Compound 119]	6.4 µM	81 µM	5.02	4.88	72.4 µM	5.19	5.28	–	–	–	–	–	–	–	–	–	–
Cc1cc(O)c(=O)c(O)cc1C(=O)C1CCCCC1 [Compound 120]	–	24 µM	5.41	5.07	~50 µM	4.84	5.53	strongly suppress	strongly suppress	fully inhibitory at 5 μM	–	–	–	–	–	–	–
Cc1cc(O)c(=O)c(O)cc1C(=O)CC1CCCCC1 [Compound 173]	6.7 µM	22 µM	5.32	5.94	> 100 µM	5.91	5.8	–	–	fully inhibitory at 5 μM	–	–	–	–	–	–	–
Cc1cc(O)c(=O)c(O)cc1-c1ccc(Br)cc1 [Compound 114]	–	–	3.92	5.26	> 100 µM	4.8	4.75	–	–	–	–	–	–	–	–	–	–
Cc1cc(O)c(=O)c(O)cc1C(=O)C(C)C [Compound 143]	6 µM	> 100 µM	0	4.78	–	0.25	5.93	strongly suppress	strongly suppress	weakest inhibitors	–	–	–	–	–	–	–
COC(=O)c1c(C)cc(O)c(=O)c(O)c1C(=O)OC [Compound 106]	2.7 µM	–	-0.55	2.87	–	-0.07	4.11	–	–	weakest inhibitors	–	–	–	–	–	–	–
Cc1cc(O)c(=O)c(O)cc1-c1ccc2ccccc2c1 [Compound 147]	–	–	4.33	4.12	74.8 µM	5.92	5.81	–	–	–	No	> 120 min	<0.1	–	–	–	–
Cc1cc(O)c(=O)c(O)cc1-c1ccccc1 [Compound 113]	4.2 µM	–	2.07	5.61	> 100 µM	2.27	5.38	–	–	–	–	–	–	–	–	–	–
O=c1c(O)ccccc1O [Compound 172]	–	> 100 µM	1.8	4.64	> 100 µM	3.31	4.11	–	–	moderate inhibitors	–	–	–	2.1 µM	–	–	–
Cc1cc(O)c(=O)c(O)cc1-c1ccc(C(F)(F)F)cc1 [Compound 145]	–	–	4.05	4.33	> 100 µM	3.96	3.97	–	–	–	–	–	–	–	–	–	–
Cc1cc(O)c(=O)c(O)cc1-c1cccc2ccccc12 [Compound 146]	2.3 µM	12 µM	5.66	5.29	> 100 µM	5.68	6.2	–	–	highly inhibitory at much lower concentrations; also recorded: fully inhibitory at 0.5 μM	No	> 120 min	<0.1	–	457,100 fold	478,600 fold	450 nM
